Laboratory results from article PMC12090182, “Repurposing of the RIPK1-Selective Benzo[1,4]oxazepin-4-one Scaffold for the Development of a Type III LIMK1/2 Inhibitor” (ACS Chemical Biology, 2025).

Test system: MRC-9 cells
Experiment: Multiplex high-content viability assessment
Type: cell-based
Details: for Cell count normalized to cells treated with DMSO control / Cell count per well / Population Fragmented Nuclei (%) / Population Healthy Nuclei (%) / Population Pyknosed Nuclei (%) / Population apoptotic cell (%) / Population cell that influence microtubule strucutre (%) / Population with increased mitochondrial mass (%) / Population with membrane disruption (%): human fibroblast
Outline: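 HEK293T and U2OS cells (DMEM) and MRC-9 fibroblasts (EMEM) exposed to compounds at 1 and 10 μM. Live-cell confocal imaging of cell shape and fluorescence before and at 12, 24 and 48 h. Normalized to 0.1% DMSO; biological duplicates with SEM.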

CN1C(=O)[C@@H](N2CCc3c(nn(Cc4ccccc4)c3C(N)=O)C2=O)COc2cc(Cl)ccc21 [Compound 10, (S)-2-benzyl-6-(8-chloro-5-methyl-4-oxo-2,3,4,5-tetrahydrobenzo[b][1,4]oxazepin-3-yl)-7-oxo-4,5,6,7-tetrahydro-2H-pyrazolo[3,4-c]pyridine-3-carboxamide]
Cell count normalized to cells treated with DMSO control (1 µM, 0 h, replicate 1): 0.9542
Cell count per well (1 µM, 0 h, replicate 1): 143
Population Fragmented Nuclei (%) (1 µM, 0 h, replicate 1): 19.86%
Population Healthy Nuclei (%) (1 µM, 0 h, replicate 1): 56.74%
Population Pyknosed Nuclei (%) (1 µM, 0 h, replicate 1): 23.40%
Population apoptotic cell (%) (1 µM, 0 h, replicate 1): 42.42%
Population cell that influence microtubule strucutre (%) (1 µM, 0 h, replicate 1): 27.50%
Population with increased mitochondrial mass (%) (1 µM, 0 h, replicate 1): 11.25%
Population with membrane disruption (%) (1 µM, 0 h, replicate 1): 1.25%
Cell count normalized to cells treated with DMSO control (1 µM, 0 h, replicate 2): 1.071
Cell count per well (1 µM, 0 h, replicate 2): 191
Population Fragmented Nuclei (%) (1 µM, 0 h, replicate 2): 17.68%
Population Healthy Nuclei (%) (1 µM, 0 h, replicate 2): 56.35%
Population Pyknosed Nuclei (%) (1 µM, 0 h, replicate 2): 25.97%
Population apoptotic cell (%) (1 µM, 0 h, replicate 2): 19.15%
Population cell that influence microtubule strucutre (%) (1 µM, 0 h, replicate 2): 32.35%
Population with increased mitochondrial mass (%) (1 µM, 0 h, replicate 2): 4.90%
Population with membrane disruption (%) (1 µM, 0 h, replicate 2): 4.90%
Cell count normalized to cells treated with DMSO control (1 µM, 12 h, replicate 1): 0.9165
Cell count per well (1 µM, 12 h, replicate 1): 138
Population Fragmented Nuclei (%) (1 µM, 12 h, replicate 1): 13.43%
Population Healthy Nuclei (%) (1 µM, 12 h, replicate 1): 56.72%
Population Pyknosed Nuclei (%) (1 µM, 12 h, replicate 1): 29.85%
Population apoptotic cell (%) (1 µM, 12 h, replicate 1): 55.00%
Population cell that influence microtubule strucutre (%) (1 µM, 12 h, replicate 1): 31.58%
Population with increased mitochondrial mass (%) (1 µM, 12 h, replicate 1): 3.95%
Population with membrane disruption (%) (1 µM, 12 h, replicate 1): 0.00%
Cell count normalized to cells treated with DMSO control (1 µM, 12 h, replicate 2): 1.033
Cell count per well (1 µM, 12 h, replicate 2): 172
Population Fragmented Nuclei (%) (1 µM, 12 h, replicate 2): 18.52%
Population Healthy Nuclei (%) (1 µM, 12 h, replicate 2): 51.23%
Population Pyknosed Nuclei (%) (1 µM, 12 h, replicate 2): 30.25%
Population apoptotic cell (%) (1 µM, 12 h, replicate 2): 36.73%
Population cell that influence microtubule strucutre (%) (1 µM, 12 h, replicate 2): 48.19%
Population with increased mitochondrial mass (%) (1 µM, 12 h, replicate 2): 3.61%
Population with membrane disruption (%) (1 µM, 12 h, replicate 2): 9.64%
Cell count normalized to cells treated with DMSO control (1 µM, 24 h, replicate 1): 0.9086
Cell count per well (1 µM, 24 h, replicate 1): 137
Population Fragmented Nuclei (%) (1 µM, 24 h, replicate 1): 12.03%
Population Healthy Nuclei (%) (1 µM, 24 h, replicate 1): 64.66%
Population Pyknosed Nuclei (%) (1 µM, 24 h, replicate 1): 23.31%
Population apoptotic cell (%) (1 µM, 24 h, replicate 1): 64.52%
Population cell that influence microtubule strucutre (%) (1 µM, 24 h, replicate 1): 32.56%
Population with increased mitochondrial mass (%) (1 µM, 24 h, replicate 1): 8.14%
Population with membrane disruption (%) (1 µM, 24 h, replicate 1): 2.33%
Cell count normalized to cells treated with DMSO control (1 µM, 24 h, replicate 2): 1.049
Cell count per well (1 µM, 24 h, replicate 2): 173
Population Fragmented Nuclei (%) (1 µM, 24 h, replicate 2): 26.25%
Population Healthy Nuclei (%) (1 µM, 24 h, replicate 2): 51.25%
Population Pyknosed Nuclei (%) (1 µM, 24 h, replicate 2): 22.50%
Population apoptotic cell (%) (1 µM, 24 h, replicate 2): 47.22%
Population cell that influence microtubule strucutre (%) (1 µM, 24 h, replicate 2): 46.34%
Population with increased mitochondrial mass (%) (1 µM, 24 h, replicate 2): 3.66%
Population with membrane disruption (%) (1 µM, 24 h, replicate 2): 8.54%
Cell count normalized to cells treated with DMSO control (1 µM, 48 h, replicate 1): 0.9623
Cell count per well (1 µM, 48 h, replicate 1): 146
Population Fragmented Nuclei (%) (1 µM, 48 h, replicate 1): 16.91%
Population Healthy Nuclei (%) (1 µM, 48 h, replicate 1): 63.97%
Population Pyknosed Nuclei (%) (1 µM, 48 h, replicate 1): 19.12%
Population apoptotic cell (%) (1 µM, 48 h, replicate 1): 76.92%
Population cell that influence microtubule strucutre (%) (1 µM, 48 h, replicate 1): 25.29%
Population with increased mitochondrial mass (%) (1 µM, 48 h, replicate 1): 4.60%
Population with membrane disruption (%) (1 µM, 48 h, replicate 1): 1.15%
Cell count normalized to cells treated with DMSO control (1 µM, 48 h, replicate 2): 1.056
Cell count per well (1 µM, 48 h, replicate 2): 172
Population Fragmented Nuclei (%) (1 µM, 48 h, replicate 2): 23.95%
Population Healthy Nuclei (%) (1 µM, 48 h, replicate 2): 59.28%
Population Pyknosed Nuclei (%) (1 µM, 48 h, replicate 2): 16.77%
Population apoptotic cell (%) (1 µM, 48 h, replicate 2): 75.00%
Population cell that influence microtubule strucutre (%) (1 µM, 48 h, replicate 2): 54.55%
Population with increased mitochondrial mass (%) (1 µM, 48 h, replicate 2): 5.05%
Population with membrane disruption (%) (1 µM, 48 h, replicate 2): 7.07%
cytotoxicity (1 μM, MRC-9): no cytotoxicity
Cell count normalized to cells treated with DMSO control (10 µM, 0 h, replicate 1): 1.081
Cell count per well (10 µM, 0 h, replicate 1): 162
Population Fragmented Nuclei (%) (10 µM, 0 h, replicate 1): 15.72%
Population Healthy Nuclei (%) (10 µM, 0 h, replicate 1): 65.41%
Population Pyknosed Nuclei (%) (10 µM, 0 h, replicate 1): 18.87%
Population apoptotic cell (%) (10 µM, 0 h, replicate 1): 33.33%
Population cell that influence microtubule strucutre (%) (10 µM, 0 h, replicate 1): 22.12%
Population with increased mitochondrial mass (%) (10 µM, 0 h, replicate 1): 9.62%
Population with membrane disruption (%) (10 µM, 0 h, replicate 1): 0.96%
Cell count normalized to cells treated with DMSO control (10 µM, 0 h, replicate 2): 0.8971
Cell count per well (10 µM, 0 h, replicate 2): 160
Population Fragmented Nuclei (%) (10 µM, 0 h, replicate 2): 22.07%
Population Healthy Nuclei (%) (10 µM, 0 h, replicate 2): 49.66%
Population Pyknosed Nuclei (%) (10 µM, 0 h, replicate 2): 28.28%
Population apoptotic cell (%) (10 µM, 0 h, replicate 2): 34.15%
Population cell that influence microtubule strucutre (%) (10 µM, 0 h, replicate 2): 44.44%
Population with increased mitochondrial mass (%) (10 µM, 0 h, replicate 2): 9.72%
Population with membrane disruption (%) (10 µM, 0 h, replicate 2): 5.56%
Cell count normalized to cells treated with DMSO control (10 µM, 12 h, replicate 1): 1.162
Cell count per well (10 µM, 12 h, replicate 1): 175
Population Fragmented Nuclei (%) (10 µM, 12 h, replicate 1): 18.93%
Population Healthy Nuclei (%) (10 µM, 12 h, replicate 1): 60.36%
Population Pyknosed Nuclei (%) (10 µM, 12 h, replicate 1): 20.71%
Population apoptotic cell (%) (10 µM, 12 h, replicate 1): 48.57%
Population cell that influence microtubule strucutre (%) (10 µM, 12 h, replicate 1): 53.92%
Population with increased mitochondrial mass (%) (10 µM, 12 h, replicate 1): 8.82%
Population with membrane disruption (%) (10 µM, 12 h, replicate 1): 1.96%
Cell count normalized to cells treated with DMSO control (10 µM, 12 h, replicate 2): 0.8225
Cell count per well (10 µM, 12 h, replicate 2): 137
Population Fragmented Nuclei (%) (10 µM, 12 h, replicate 2): 27.87%
Population Healthy Nuclei (%) (10 µM, 12 h, replicate 2): 49.18%
Population Pyknosed Nuclei (%) (10 µM, 12 h, replicate 2): 22.95%
Population apoptotic cell (%) (10 µM, 12 h, replicate 2): 25.00%
Population cell that influence microtubule strucutre (%) (10 µM, 12 h, replicate 2): 60.00%
Population with increased mitochondrial mass (%) (10 µM, 12 h, replicate 2): 5.00%
Population with membrane disruption (%) (10 µM, 12 h, replicate 2): 3.33%
Cell count normalized to cells treated with DMSO control (10 µM, 24 h, replicate 1): 1.1009
Cell count per well (10 µM, 24 h, replicate 1): 166
Population Fragmented Nuclei (%) (10 µM, 24 h, replicate 1): 25.32%
Population Healthy Nuclei (%) (10 µM, 24 h, replicate 1): 55.06%
Population Pyknosed Nuclei (%) (10 µM, 24 h, replicate 1): 19.62%
Population apoptotic cell (%) (10 µM, 24 h, replicate 1): 54.84%
Population cell that influence microtubule strucutre (%) (10 µM, 24 h, replicate 1): 45.98%
Population with increased mitochondrial mass (%) (10 µM, 24 h, replicate 1): 10.34%
Population with membrane disruption (%) (10 µM, 24 h, replicate 1): 1.15%
Cell count normalized to cells treated with DMSO control (10 µM, 24 h, replicate 2): 0.8977
Cell count per well (10 µM, 24 h, replicate 2): 148
Population Fragmented Nuclei (%) (10 µM, 24 h, replicate 2): 34.56%
Population Healthy Nuclei (%) (10 µM, 24 h, replicate 2): 47.06%
Population Pyknosed Nuclei (%) (10 µM, 24 h, replicate 2): 18.38%
Population apoptotic cell (%) (10 µM, 24 h, replicate 2): 40.00%
Population cell that influence microtubule strucutre (%) (10 µM, 24 h, replicate 2): 65.63%
Population with increased mitochondrial mass (%) (10 µM, 24 h, replicate 2): 9.38%
Population with membrane disruption (%) (10 µM, 24 h, replicate 2): 1.56%
Cell count normalized to cells treated with DMSO control (10 µM, 48 h, replicate 1): 1.1403
Cell count per well (10 µM, 48 h, replicate 1): 173
Population Fragmented Nuclei (%) (10 µM, 48 h, replicate 1): 22.56%
Population Healthy Nuclei (%) (10 µM, 48 h, replicate 1): 61.59%
Population Pyknosed Nuclei (%) (10 µM, 48 h, replicate 1): 15.85%
Population apoptotic cell (%) (10 µM, 48 h, replicate 1): 84.62%
Population cell that influence microtubule strucutre (%) (10 µM, 48 h, replicate 1): 40.59%
Population with increased mitochondrial mass (%) (10 µM, 48 h, replicate 1): 5.94%
Population with membrane disruption (%) (10 µM, 48 h, replicate 1): 0.00%
Cell count normalized to cells treated with DMSO control (10 µM, 48 h, replicate 2): 0.9149
Cell count per well (10 µM, 48 h, replicate 2): 149
Population Fragmented Nuclei (%) (10 µM, 48 h, replicate 2): 33.82%
Population Healthy Nuclei (%) (10 µM, 48 h, replicate 2): 56.62%
Population Pyknosed Nuclei (%) (10 µM, 48 h, replicate 2): 9.56%
Population apoptotic cell (%) (10 µM, 48 h, replicate 2): 46.15%
Population cell that influence microtubule strucutre (%) (10 µM, 48 h, replicate 2): 61.04%
Population with increased mitochondrial mass (%) (10 µM, 48 h, replicate 2): 6.49%
Population with membrane disruption (%) (10 µM, 48 h, replicate 2): 2.60%
impact on tubulin, mitochondrial mass, and cellular permeability in healthy cells (MRC-9, 1 μM (Figure 6)): comparable to that of the 0.1% DMSO control
